Target: Acetylcholinesterase (Electrophorus electricus, UniProt O42275)
Assay: Inhibition of electric eel AChE by Ellman's method

Chain of Acetylcholinesterase (O42275 whole entry): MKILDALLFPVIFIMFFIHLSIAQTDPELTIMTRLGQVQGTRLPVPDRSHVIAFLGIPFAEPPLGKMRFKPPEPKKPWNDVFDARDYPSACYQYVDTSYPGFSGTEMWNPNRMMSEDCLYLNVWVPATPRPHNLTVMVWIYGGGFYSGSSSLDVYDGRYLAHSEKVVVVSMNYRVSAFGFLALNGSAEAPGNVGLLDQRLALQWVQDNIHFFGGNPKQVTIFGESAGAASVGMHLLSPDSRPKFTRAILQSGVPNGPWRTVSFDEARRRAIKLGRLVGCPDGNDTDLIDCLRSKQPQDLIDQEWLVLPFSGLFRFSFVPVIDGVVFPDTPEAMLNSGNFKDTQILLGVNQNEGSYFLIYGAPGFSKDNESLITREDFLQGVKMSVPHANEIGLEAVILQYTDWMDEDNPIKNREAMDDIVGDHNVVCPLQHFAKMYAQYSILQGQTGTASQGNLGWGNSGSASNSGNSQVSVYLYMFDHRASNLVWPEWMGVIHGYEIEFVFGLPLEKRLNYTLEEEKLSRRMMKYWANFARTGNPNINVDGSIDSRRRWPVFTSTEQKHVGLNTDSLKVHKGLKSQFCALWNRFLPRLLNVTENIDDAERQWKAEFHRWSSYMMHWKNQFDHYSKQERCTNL

Structure (SMILES): O=CN1CC[C@]23CC(=O)CC[C@H]2[C@H]1Cc1c(O)ccc(O)c13
- IC50: 12.7 µM
